Series [1] relates to early life stage zebrafish (Danio rerio) embryos. The series can be described thus: Developmental toxicity morphology screen, sealed rotating vial exposure. It is filed as in vivo. Details: bmd, MO24 / bmd, MORT / bmd, ANY_ / bmd, AXIS / bmd, CRAN / bmd, EDEM / bmd, LTRK / bmd, MUSC / bmdL, ANY_ / bmdU, ANY_ / bmdL, AXIS / bmdU, AXIS / bmdL, CRAN / bmdU, CRAN / bmdL, EDEM / bmdU, EDEM / bmdL, LTRK / bmdU, LTRK / bmdL, MO24 / bmdU, MO24 / bmdL, MORT / bmdU, MORT: unit not given here. As to conditions: for BMC50 Any effect: Fig. 2 heatmap, exposure 6-24 hpf in vials, summary of all endpoints; for any effect BMD50: SI-T5; for bmd, MO24: endpoint MO24; for bmd, MORT: endpoint MORT; for bmd, ANY_: morphology endpoint ANY_ (any effect); for bmd, AXIS: morphology endpoint AXIS; for bmd, CRAN: morphology endpoint CRAN; for bmd, EDEM: morphology endpoint EDEM. As to the method: (§1) When embryos were 6 hpf they were bleached in groups of 1000 or less to limit bacterial growth in sealed vials. Embryos were placed in a strainer for transfer between solutions in 500 mL containers. […] Pools of eight embryos were placed into 2 mL clear glass screw cap exposure vials with polyvinyl-faced pulp liner (Avantar Radnor, PA, United States) using a glass Pasteur pipette. Excess EM was removed, and 2 mL of fresh EM was immediately added. A total of 10 uL of 200x working stock (in DMSO) was added to each vial, then immediately capped and inverted three times to mix. […] Vials were loaded into a custom 3D printed vial holder for slow end-over-end rotation in a dark 28 °C incubator overnight. […] At 24 hpf, embryos were removed from exposure vials and singulated into 96-well plates loaded with 100 μL chemical-free EM. Each exposure vial group was maintained in plate columns. After loading into 96-well plates, embryos were assessed for 24-hour mortality. For the remainder of the exposure, plates were kept stationary at 28 °C in the dark, until 120 hpf when morphology screening and the larval photo motor response (LPR) assay were conducted, section 2.3.2 and section 2.3.3, respectively.
Each treatment group was replicated over four vials, resulting in 32 embryos per treatment, split over two replicate 96-well plates per chemical. […] All reported concentrations were nominal water concentrations and are included in SI-T4.
At 24 hpf embryos were assessed for mortality (MO24). At 120 hpf embryos were assessed for abnormality in […] morphological endpoints: mortality (MORT), edemas (EDEM), bent axis (AXIS), touch response (TCHR), craniofacial (CRAN), muscular/cardiovascular (MUSC), lower trunk (LRTK), brain (BRAN), skin (SKIN), and notochord malformations (NC). Morphological assessments were made by a team of three to four individuals. The team was blinded to the identity, plate layout, and concentrations of the chemicals, thereby minimizing bias in morphological screening assessment. To ensure the assessments were consistent, concentration–response reproducibility of a parathion ethyl quality control plate was performed along with each experimental exposure set up. Details of all measured endpoints can be found at Developmental toxicity zebrafish phenotype atlas. […] Each endpoint was scored as a binary presence/absence and scores were compiled into an “Any effect” endpoint, the presence of abnormality in any individual endpoint.
The Any effect percent was used to calculate the BMC50, 50 % change relative to the background for each endpoint and chemical. All values were reported as the nominal exposure concentration.

Series [2] relates to zebrafish larvae, 120 hpf. The series can be described thus: Larval photomotor response (LPR) assay after vial exposure. As to conditions: for fold_change: LPR. It counts as in vivo, Danio rerio. As for the experimental part:
as §1
Each treatment group was replicated over four vials, resulting in 32 embryos per treatment, split over two replicate 96-well plates per chemical. […] Vial groups of plated larvae were tracked to assess the impact of the vial on the results. All reported concentrations were nominal water concentrations and are included in SI-T4.
The LPR assay was conducted at 120 hpf. […] Larval movement was tracked throughout minutes 6–24. Animals dead or morphologically abnormal were excluded from the analysis, and if more than 30 % of the wells in a treatment group were excluded, the treatment was removed.
Movement values were binned into 6s intervals, log normalized and used to calculate area under the curve (AUC). AUC values from the first cycle after calibration were used to calculate the LEL for each period (light and dark).

[3] abbreviates: period dark, round 1, conc 3.125.
The mark [4] stands for this setting: period dark, round 1, conc 6.25.
[5] abbreviates: period dark, round 1, conc 12.5.
[6] abbreviates: period light, round 1, conc 3.125.
Where [7] appears, read: period light, round 1, conc 6.25.
Setting [8] is: period light, round 1, conc 12.5.

Consider four molecules from paper PMC12560828, “Chemical structure drives developmental toxicity of alkyl-substituted naphthalenes in zebrafish” (Environment international, 2025).

Molecules are shown by their SMILES.

On to `Cc1cc2cccc(C)c2cc1C` [1,6,7-trimethylnaphthalene], for which the “BMC50 AXIS (curved or bent body axis at 120 hpf)” value in series [1] (Fig. 2, nominal concentration) was determined as 32.1 µM. For the same molecule, the “BMC50 CRAN (craniofacial malformation at 120 hpf)” value in series [1] (Fig. 2, nominal concentration) was 28.2 µM. Moreover, the “BMC50 EDEM (pericardial and/or yolk sac edema at 120 hpf)” value in series [1] (Fig. 2, nominal concentration) turned out to be 34.7 µM. Besides, in series [1] (Fig. 2, nominal concentration), the “BMC50 LTRK (lower trunk and/or caudal fin at 120 hpf)” value came out at 32.9 µM. Besides, the “BMC50 MO24 (mortality at 24 hpf)” value in series [1] (Fig. 2, nominal concentration) was determined as 38.9 µM. In addition, the “BMC50 MORT (mortality at 120 hpf)” value in series [1] (Fig. 2, nominal concentration) came out at 31.5 µM. Besides, the “BMC50 Any effect” value in series [1] (nominal concentration) turned out to be 21.4 µM. Further, in series [1], the “any effect BMD50” value is 21.39 µM. The “bmd, MO24” value in series [1] (benchmark dose) stood at 38.9242. Also, the “bmd, MORT” value in series [1] (benchmark dose) was 31.4823. Besides, the “bmd, ANY_” value in series [1] (benchmark dose) is 21.386. For the same molecule, the “bmd, AXIS” value in series [1] (benchmark dose) was 32.075. For the same molecule, the “bmd, CRAN” value in series [1] (benchmark dose) is 28.1944. The “bmd, EDEM” value in series [1] (benchmark dose) is given as 34.7005. Moreover, the “bmd, LTRK” value in series [1] (benchmark dose, morphology endpoint LTRK) came to 32.865. In addition, the fold_change is on record as -0.2752 in series [2] (setting [3]); -0.07056 in series [2] (setting [4]); -0.09309 in series [2] (setting [5]); -0.1665 in series [2] (period dark, round 2, conc 12.8); -0.296 in series [2] (period dark, round 2, conc 16); -0.09002 in series [2] (period dark, round 2, conc 20). Moreover, the fold_change in series [2] (setting [6]) is given as -0.921; in series [2] (setting [7]), -0.5316; in series [2] (setting [8]), -0.2101; in series [2] (period light, round 2, conc 12.8) it was 0.6308; in series [2] (period light, round 2, conc 16) it was -0.8625; in series [2] (period light, round 2, conc 20) it was 0.7418.

As to `Cc1ccc2c(C)c(C)ccc2c1C` [1,2,5,6-tetramethylnaphthalene], the fold_change is listed as -0.03133 in series [2] (setting [3]); -0.4187 in series [2] (setting [4]); -0.4196 in series [2] (setting [5]); -0.1628 in series [2] (period dark, round 1, conc 25); -0.3813 in series [2] (period dark, round 1, conc 50); 0.2549 in series [2] (setting [6]). The fold_change in series [2] (setting [7]) is on record as -0.3197; in series [2] (setting [8]), 0.8672; in series [2] (period light, round 1, conc 25), -0.1531; in series [2] (period light, round 1, conc 50), 0.1565.

On to `Cc1ccc2ccccc2c1C` [1,2-dimethylnaphthalene], for which the LPR behavioral effect result in series [2] (120 hpf, light/dark periods, result in words) is “active”.

Turning to `Cc1ccc2c(C)cccc2c1` [1,6-dimethylnaphthalene], in series [1] (Fig. 2, nominal concentration), the “BMC50 AXIS (curved or bent body axis at 120 hpf)” value amounted to 46.6 µM, the “BMC50 CRAN (craniofacial malformation at 120 hpf)” value came to 42.5 µM, the “BMC50 EDEM (pericardial and/or yolk sac edema at 120 hpf)” value is 46 µM and the “BMC50 MO24 (mortality at 24 hpf)” value was determined as 46.6 µM. The “BMC50 MORT (mortality at 120 hpf)” value in series [1] (Fig. 2, nominal concentration) was determined as 43.4 µM. Also, the “BMC50 Any effect” value in series [1] (nominal concentration) was 34.6 µM. The “any effect BMD50” value in series [1] is 34.56 µM. Besides, in series [1] (benchmark dose), the “bmd, MO24” value is recorded as 46.5621; the “bmd, MORT” value is on record as 43.4183; the “bmd, ANY_” value is recorded as 34.5645; the “bmd, AXIS” value amounted to 46.5655. Also, in series [1] (benchmark dose), the “bmd, CRAN” value is given as 42.4789 and the “bmd, EDEM” value was determined as 45.9847.
